The values that follow come from patent publication US6541463B1, “Inhibitors of type 5 and type 3 17β-hydroxysteroid dehydrogenase and methods for their use” (Endorecherche, Inc., priority 1998, dated 2003).

The target of data set [1] is T1, human type 1 17β-hydroxysteroid dehydrogenase (Homo sapiens, UniProt P14061).
T1 construct: expressed in transfected cells; host or cells: 293 cells, transient transfection; 100 000×g supernatant (cytosol)
T1 sequence (P14061 1-328): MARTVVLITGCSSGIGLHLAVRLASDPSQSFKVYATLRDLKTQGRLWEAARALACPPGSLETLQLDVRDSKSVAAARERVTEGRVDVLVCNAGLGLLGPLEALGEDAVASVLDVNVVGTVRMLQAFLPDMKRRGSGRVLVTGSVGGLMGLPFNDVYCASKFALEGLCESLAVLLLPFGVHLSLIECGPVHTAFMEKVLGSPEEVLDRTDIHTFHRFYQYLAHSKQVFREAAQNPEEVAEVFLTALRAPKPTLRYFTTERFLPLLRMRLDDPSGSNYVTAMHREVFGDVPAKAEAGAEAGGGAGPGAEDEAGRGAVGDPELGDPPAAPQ
As to the kind of experiment: Enzymatic assay for type 1 17β-HSD. The class given is biochemical. The settings on record: for inhibition at 3 µM / Inhibition Type 1 17B-HSD Activity [% Inh. at 3 · 10^−6 M]: 3 · 10^−6 M, value in square brackets; for inhibition at 3 µM: read-out: Inhibition Type 1 17B-HSD Activity [% Inh. at 3 · 10^−6 M]; for IC50: Table 4′, read-out: Inhibition Type 1 17β-HSD Activity IC50. The procedure: The manner in which IC50 was determined is described in “Efficacy of Preferred Inhibitors: VI. Enzymatic assay for types 1, 2, and 3 17β-HSD and types 1 and 3 3α-HSD”. […] numbers of IC50 are desirable. Blank means that a determination was not done. The % of inhibition at the concentration of 3.10^−6M determined in preliminary screening test is reported in square braquets.
Enzyme sources. 293 cells transiently transfected with expression vectors encoding types 1, 2 and 3 17β-HSD (Luu-The et al., J. Steroid Biochem. Molec. Biol., 55: 581-587, 1995), types 1 and 2 5α-reductase (Luu-The et al., J. Invest. Dermatol., 102: 221-226, 1994) and types 1 and 3 3α-HSD (Dufort et al. Biochem. Biophys. Res. Commun. 228: 474-479, 1996), using the calcium phosphate procedure (Kingston et al., In: Current Protocols in Molecular Biology. Edited by E. M. Ausbel, R. Brent, R. E. Kingston, D. D. Moore, J. G. Seidman, J. A. Smith, K. Struhl. John Wiley & Sons, New York, pp. 9.1.1-9.1.9, 1991; Luu-The et al., J. Invest. Dermatol., 102: 221-226, 1994). For assays using cell subfractions, cells were sonicated in 50 mM sodium phosphate buffer (pH 7.4), containing 20% glycerol and 1 mM EDTA and centrifuged at 10 000×g for 30 min before centrifugation for 100 000×g for 1 h to separate the mitochondrial and microsomal fractions, respectively. The cytosol fractions (100 000×g supernatant) was used to determine type 1 activity while the microsomal fraction (pellet at 100 000×g) was used for measurement of types 2 and 3 17β-HSD activities.
Incubation. The enzymatic reaction was carried out at 37° C. in 1 ml of 50 mM sodium phosphate buffer, pH 7.4, containing 20% glycerol, 1 mM EDTA, and 2 mM cofactors (NADPH or AND^+) for 1 h in the presence of 0.1 μM ^14C-labeled substrate: estrone and 4-dione for types 1 and […] 17β-HSD, respectively, testosterone for type 2 17β-HSD as well as types 1 and 2 5α-reductases, DHT for types 1 and 3 3α-HSD activities, and the indicated concentration of inhibitor.
Extraction of metabolites, migration on TLC and quantification were as described above for the assay of type 5 17β-HSD.

Data set [2] in a line: In vivo assay of oral bioavailability (plasma AUC 0-7 h by LCMS/MS). More on the design: species or system male Sprague Dawley rats. The settings on record: male, Sprague-Dawley [Crl:CD(SD)Br]. As to the method: In column 1, the oral bioavailability of preferred type 5 inhibitors, expressed in ng/mL.h, was determined as described below in “Other Tests, A-In Vivo Assays of Bioavailability of Human Type 5 17β-HSD Inhibitors”. Higher number are desirable. ND means that a determination was not done.
The measurements at various time intervals were for values greater than or equal to 1.0 ng/mL and less than or equal to 50 ng/mL.
Male Sprague-Dawley rats [Crl:CD(SD)Br] weighing 275-350 g were obtained from Charles-River Canada Inc. and housed 2 per cage during the acclimation period and individually during the study period. The animals were maintained under a regimen of 12 hours light: 12 hours dark (lights on at 08:00). Animals received certified Rodent feed (Lab Diet #5002, pellets) and tap water ad libitum. Rats were fasted (access to water only) starting on the evening prior to dosing.
Each compound to be tested was administered to three animals as a suspension in 0.4% methylcellulose by oral gavage at a dose of 0.5 mg/rat (1.0 ml/rat). Four to eight new compounds were tested each day and one group of animals received megestrol acetate (MGA) under the same conditions on each dosing day as a reference. […] Blood samples were immediately transferred into a refrigerated 0.75 ml Microtainer containing EDTA and kept in an ice-water bath until centrifugation at 3000 rpm for 10 minutes. Plasma separation was performed rapidly (less than 50 minutes) after blood collection. One aliquot of 0.25 ml of plasma was then transferred into a borosilicate tube (13×100) and was rapidly frozen on dry-ice. Plasma samples were kept at −80° C. until measurement of plasma concentration of the inhibitor(s) by LCMS/MS.
Aliquots of rat plasma (0.250 mL) were transferred to 13×100 mm borosilicate tubes. Water (1.0 mL) and internal standard solution (0.1 mL) were added to each sample and vortexed for 2 min. A mixture of N-butyl chloride and acetone (v:v, 7:3) (3 mL) was added to each sample and vortexed for 2 min. This step was repeated and the combined organic phases were evaporated to dryness under nitrogen in a Turbo Vap evaporator at 35° C. The residue was reconstituted with 1 mL of methanol and evaporated in a Turbo Vap evaporator at 35° C. The final extract was reconstituted into 0.1 mL of methanol/water (v:v, 75:25) and then transferred into a conical vial for injection into the mass spectrometer.
The assay procedure was performed by analyzing, in duplicate, rat plasma samples spiked at six different Type 5 inhibitor concentrations (1, 2, 5, 10, 20 and 50 ng/mL). The lower limit of quantitation (LOQ) was established at 1.0 ng/mL. Values lower than 1.0 ng/mL were expressed as below limit of quantification (BLQ). […]

Setting [3] is: 0.5 mg, Table 4′, oral, rat plasma.

The structures appear in SMILES notation. Where only a bound is given, the exact number is not on record here.

With `CC12C=CC(=O)C=C1C=CC1C2CCC2(C)C(=O)C3(CCCCC3)CC12` (stereo not drawn) [CS-204], in data set [1], the inhibition at 3 µM turned out to be 23%.
Take `CC1=C[C@@H]2[C@H](CC[C@]3(C)C(=O)C4(CCCCC4)C[C@@H]23)[C@@]2(C)CCC(=O)C=C12` [EM-925]: in data set [1], the “Inhibition Type 1 17B-HSD Activity [% Inh. at 3 · 10^−6 M]” value is “[13] %”.
Take `CCCC(=O)O[C@]1(C)C(=O)CCC2C3C=C(C)C4=CC(=O)CC[C@]4(C)C3CC[C@@]21C` (stereo partly drawn) [EM-1078]: the inhibition at 3 µM in data set [1] worked out at 15%.
As to `CCC[C@@H]1CC2C3C=CC4=CC(=O)CC[C@]4(C)C3CC[C@]2(C)C1=O` (stereo partly drawn) [EM-1097], the inhibition at 3 µM in data set [1] is 64%. In data set [2] (rat, plasma, po, 0.5 mg/rat), the AUC(0-t) is 122 ± 5.7 ng·h/mL.
`CC1(C)CC[C@@]2(CCC3C4CCc5cc(F)ccc5C4CC[C@@]32C)OC1=O` (stereo partly drawn) [EM-1157-CS]: in data set [1], the IC50 was over 10 µM. The AUC(0-t) in data set [2] (setting [3]) was found to be 40 ± 7 ng·h/mL.
For `CCC[C@]1(F)CC2C3C=CC4=CC(=O)CC[C@]4(C)C3CC[C@]2(C)C1=O` (stereo partly drawn) [EM-1183], the inhibition at 3 µM in data set [1] came to 34%.
As for `CC(C)C[C@@H]1CC2C3C=CC4=CC(=O)CC[C@]4(C)C3CC[C@]2(C)C1=O` (stereo partly drawn) [EM-1273-CS], in data set [1], the inhibition at 3 µM came to 31%. For the same compound, the AUC(0-t) in data set [2] (rat, plasma, po, 0.5 mg/rat) is 85 ± 26 ng·h/mL.
Consider `C[C@]12CCC(=O)C=C1C=C[C@@H]1[C@@H]2CC[C@]2(C)C(=O)C3(CC4CC4C3)C[C@@H]12` (stereo partly drawn) [EM-1299, 4,6-Androstadien-3,17-dione-16-spirobicyclo[3′.1′.0′]-hexane], for which the “Inhibition Type 1 17B-HSD Activity [% Inh. at 3 · 10^−6 M]” value in data set [1] is “[49] %”.
As for `CC1(C)CCC2(CCC3C4CCc5cc(OS(C)(=O)=O)ccc5C4CCC32C)OC1=O` (stereo not drawn) [EM-1365-CS], the IC50 in data set [1] was over 10 µM.
Consider `COc1ccc2c(c1)C(=O)CC1C2CC[C@@]2(C)C1CC[C@@]21CCC(C)(C)C(=O)O1` (stereo partly drawn) [EM-1394], for which, in data set [1], the IC50 is over 10 µM. In data set [2] (setting [3]), this compound returned an AUC(0-t) of 1760 ± 69 ng·h/mL.
For `COCCOc1cc2c(cc1C#N)C1CC[C@@]3(C)C(CC[C@@]34CCC(C)(C)C(=O)O4)C1CC2` (stereo partly drawn) [EM-1396], in that order: over 10 µM and 196 ± 53 ng·h/mL.
For `CC1(C)CC[C@@]2(CCC3C4CCc5cc(C(=O)O)ccc5C4CC[C@@]32C)OC1=O` (stereo partly drawn) [EM-1401, 3-Carboxy-1,3,5(10)-estratrien-17(R)-spiro-2′-(5′,5′-dimethyl-6′-oxo)tetrahydropyran] the same measures were over 10 µM and 1630 ± 181 ng·h/mL.
For `COCCOc1cc2c(cc1C(=O)OC)C1CC[C@@]3(C)C(CC[C@@]34CCC(C)(C)C(=O)O4)C1CC2` (stereo partly drawn) [EM-1402-CS, 2-Carbomethoxy-3-(2″-methoxyethyloxy)-1,3,5(10)-estratrien 17(R)-spiro-2′-(5′,5′-dimethyl-6′-oxo)tetrahydropyran], in that order: over 10 µM and 214 ± 36 ng·h/mL.
For `CC1(C)CC[C@@]2(CCC3C4CCc5cc(C(N)=O)ccc5C4CCC32C)OC1=O` (stereo partly drawn) [EM-1404], the IC50 in data set [1] is over 10 µM. In data set [2] (setting [3]), the AUC(0-t) came to 3840 ± 197 ng·h/mL.
For `COCCOc1cc2c(cc1C(N)=O)C1CC[C@@]3(C)C(CC[C@@]34CCC(C)(C)C(=O)O4)C1CC2` (stereo partly drawn) [EM-1424, 2-Carbamoyl-3-(2″-methoxyethyloxy)-1,3,5(10)-estratrien 17(R)-spiro-2′-(5′,5′-dimethyl-6′-oxo)tetrahydropyran], in that order: over 10 µM and 368 ± 70 ng·h/mL.

The term inhibition denotes the drop in the measured response relative to a control, in per cent. One may read the AUC(0-t) as the area under the concentration-time curve up to a stated or last time point. Low values mean less exposure, high ones more exposure. As usually defined, the IC50 is the concentration that inhibits the measured activity by half.
